What was measured:
[1] = molecular target: Human full-length SHP2 recombinant protein (Homo sapiens (Human), UniProt Q06124); assay: Assay of full-length SHP2 phosphatase activity; format: biochemical; settings: DiFMUP substrate, with activating peptide
Procedure, shortened: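 Full-length human SHP2 preincubated 30 min at RT with activating peptide and compound (1% DMSO final). DiFMUP substrate added, reaction 60 min at 25 °C in dark. Fluorescence at ex 355/em 460 nm; IC50 from 4-parameter fit against enzyme-free and vehicle controls.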

[2] = tested on: Miapaca2 3D spheroids; assay: Assay of cell proliferation on Miapaca2 3D spheroids; format: cell-based; settings: CellTiter-Glo 3D, 5 days treatment
Experimental: Example 4 Assay of Cell Proliferation on Miapaca2 3D Spheroids
1. Reagents and Materials • CellTiter-Glo® 3D Cell Viability Assay Kit: Promega, Cat #G9683; • CellCarrier Spheroid ULA 96-well plate: Corning, Cat #4515; • Instrument: Envision, Perkinelmer; • Cell line: Miapaca2, ATCC, Cat #CRL-1420.
2. Preparation of Reaction Solutions • The test compound was dissolved in DMSO and diluted with DMSO to 3000.0 μM, and the compound was further 3-fold diluted with DMSO to: 1000.0, 333.3, 111.1, 37.0, 12.3, 4.1, and 1.4 μM. Then 2 μL of the compound at different dilution concentrations was added to 198 μL of a 1640 medium to prepare a 10× test compound, wherein DMSO was at the concentration of 1% (DMSO was at the final concentration of 0.1%).
3. Experimental Methods • Day0: Digest cells and count cell numbers. Miapaca2 cells were inoculated into a spheroid ULA 96-well plate at a density of 300 cells/well at 100 μL/well and cultured in a cell incubator at 5% CO2 and 37° C. • Day2: The cell spheroids formed at day2. Add 10 μL of 10× test compounds to the 96-well plate. To the cell positive control well was added 10 μL of 1% DMSO 1640 medium. Incubate the cell spheroids in a cell incubator at 5% CO2 and 37° C. for additional 5 days. • Cell viability assay: Add 50 μL of CellTiter-Glo reagent to each well, place the plate in a microplate shaker, and lysis under shaking at 900 rpm at room temperature for 5 minutes. Then incubate the plate at room temperature in the dark for 30 minutes. • The luminescene of each well was detected on Envision2104.
Cell Survial %=(Lum(d7 treatment)−Lum(d2 cell))/(Lum(d7 cell)−Lum(d2 cell))×100
Wherein: • Lum(d7 treatment) refers to the luminescene of the test compound treated cells on day7; • Lum(d2 cell) refers to the luminescene of the 0.1% DMSO treated Miapaca2 cells on day2; • Lum(d7 cell) refers to the luminescene of the 0.1% DMSO treated Miapaca2 cells on day7. • IC50 values were calculated following formula 205: y=A+((B−A)/(1+((C/X)^D))), by using the XL-Fit 5.0 software.

[3] = tested on: pERK1/2 (Thr202/Tyr204) in Miapaca2 cells; assay: Assay of intracellular pERK1/2 (Thr202/Tyr204) phosphorylation; format: cell-based; settings: pERK1/2 (Thr202/Tyr204) HTRF
Procedure, shortened: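 Miapaca2 cells treated 2 h at 37 °C with compound (3-fold series; final DMSO 0.5%), then lysed 1 h. pERK1/2 (Thr202/Tyr204) detected by HTRF (665/615 nm ratio) after 2 h at 25 °C; normalized to cell-free lysis buffer and DMSO-treated cell controls; IC50 by four-parameter fit.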

[4] = Homo sapiens, MIA PaCa-2, 120 h

Structure (SMILES)	IC50 [1] [nM]	IC50 [2, 4] [nM]	IC50 ([3]; Homo sapiens, MIA PaCa-2, 2 h) [nM]	IC50 [2] [nM]	IC50 ([3]; 2 hours) [nM]
C#Cc1ccc2c(c1)[C@@H](N)C1(CCN(c3cc(=O)n(-c4ccc(C#N)c(Cl)c4Cl)c(C)n3)CC1)C2 (atropisomer, axis not shown) [Compound 193]	1	–	–	90	24
CCNC(=O)C#Cc1ccc2c(c1)[C@@H](N)C1(CCN(c3cnc(Sc4cc(F)nc(N)c4Cl)cn3)CC1)C2 [Compound 273]	1	2	5	–	–
CC#Cc1ccc2c(c1)[C@@H](N)C1(CCN(c3cc(=O)n(-c4ccc(F)c(F)c4Cl)c(C)n3)CC1)C2 (atropisomer, axis not shown) [Compound 217]	1	62	–	–	49
CNC(=O)C#Cc1ccc2c(c1)[C@@H](N)C1(CCN(c3cnc(Sc4ccnc(N)c4Cl)c(N)n3)CC1)C2 [Compound 229, (S)-3-(1-amino-1′-(6-amino-5-((2-amino-3-chloropyridin-4-yl)thio)pyrazin-2-yl)-1,3-dihydrospiro[indene-2,4′-piperidin]-6-yl)-N-methylpropiolamide]	1	0.5	2	–	–
Nc1nccc(Sc2cnc(N3CCC4(CC3)Cc3ccc(C#CC(=O)NC5CC5)cc3[C@H]4N)cn2)c1Cl [Compound 296]	0.3	0.7	2	–	–
CNC(=O)C#Cc1ccc2c(c1)[C@@H](N)C1(CCN(c3cnc(Sc4ccnc(N)c4Cl)cn3)CC1)C2 [Compound 227]	1	0.4	2	–	–
COCC#Cc1ccc2c(c1)[C@@H](N)C1(CCN(c3cc(=O)n(-c4ccc(C#N)c(OC)c4F)c(C)n3)CC1)C2 [Compound 197]	3	38	29	–	–
COCC#Cc1ccc2c(c1)[C@@H](N)C1(CCN(c3ncc(Sc4ccnc(N)c4Cl)c4ncnn34)CC1)C2 [Compound 148]	4	47	13	–	–

The remaining compounds from weak to strong by IC50 [1], led by results:

IC50 [1] [nM]	IC50 [2, 4] [nM]	IC50 ([3]; Homo sapiens, MIA PaCa-2, 2 h) [nM]	Structure (SMILES)	IC50 [2] [nM]	IC50 ([3]; 2 hours) [nM]
38	97	41	C#Cc1cc(F)c2c(c1)[C@@H](N)C1(CCN(c3ncc(Sc4ccnc(N)c4Cl)n4nccc34)CC1)C2 [Compound 176]	–	–
6	31	10	C#Cc1ccc2c(c1)[C@@H](N)C1(CCN(c3ncc(Sc4ccnc(N)c4Cl)n4nccc34)CC1)C2 [Compound 156]	–	–
5	95	56	C#Cc1cc(F)c2c(c1)[C@@H](N)C1(CCN(c3cc(=O)n(-c4cccc(Cl)c4Cl)c(C)n3)CC1)C2 [Compound 135]	–	–
2	3	4	Cc1nc(Sc2ccnc(N)c2Cl)c(N)nc1N1CCC2(CC1)Cc1ccc(C#CC(N)=O)cc1[C@H]2N [Compound 276]	–	–
1	0.4	2	CCNC(=O)C#Cc1ccc2c(c1)[C@@H](N)C1(CCN(c3cnc(Sc4ccnc(N)c4Cl)c(N)n3)CC1)C2 [Compound 226]	–	–
1	19	31	CCNC(=O)C#Cc1ccc2c(c1)[C@@H](N)C1(CCN(c3ncc(Sc4ccnc(N)c4Cl)nn3)CC1)C2 [Compound 249]	–	–
1	2	5	CCNC(=O)C#Cc1ccc2c(c1)[C@@H](N)C1(CCN(c3cnc(Sc4ccnc(N)n4)cn3)CC1)C2 [Compound 260]	–	–
1	2	4	Cc1nc(Sc2ccnc(N)c2Cl)cnc1N1CCC2(CC1)Cc1ccc(C#CC(N)=O)cc1[C@H]2N [Compound 271]	–	–
0.3	1	7	CNC(=O)C#Cc1ccc2c(c1)[C@@H](N)C1(CCN(c3cnc(Sc4ccnc(N)n4)cn3)CC1)C2 [Compound 262]	–	–

Source: patent publication US20240140931A1, “TRICYCLIC COMPOUNDS AND USES THEREOF” (HUTCHMED LIMITED, priority 2021, published 2024)
